# From ChEMBL document CHEMBL1157515, “Discovery of a novel class of 2-ureido thiophene carboxamide checkpoint kinase inhibitors” (Bioorg Med Chem Lett, 2008)
# Tested on: HT-29
# Experiment: Abrogation of camptothecin induced cell cycle arrest at G2/M phase in human HT29 cells
# Format: functional, cell-based
# Settings: Homo sapiens, HT-29
row,SMILES,EC50 [nM]
1,NC(=O)Nc1sc(-c2ccsc2)cc1C(=O)N[C@H]1CCCNC1,< 9
2,CS(=O)(=O)c1ccc(-c2cc(C(=O)N[C@H]3CCCNC3)c(NC(N)=O)s2)cc1,200
3,CN(C)C(=O)c1ccc(-c2cc(C(=O)N[C@H]3CCCNC3)c(NC(N)=O)s2)cc1,320
4,CCN(CC)CCOc1cccc(-c2cc(C(=O)NC3CCCNC3)c(NC(N)=O)s2)c1 (racemic),2600

# Same assay, conditions: ht-29
row,SMILES,EC50 [nM]
1,NC(=O)Nc1sc(-c2cccnc2)cc1C(=O)N[C@H]1CCCNC1,300
2,NC(=O)Nc1sc(-c2ccncc2)cc1C(=O)N[C@H]1CCCNC1,340
3,NC(=O)Nc1sc(-c2cccc(F)c2)cc1C(=O)N[C@H]1CCCNC1,20
4,NC(=O)Nc1sc(-c2ccccc2)cc1C(=O)N[C@@H]1CCCNC1,1900

# Molecular target: T1, Serine/threonine-protein kinase Chk1 (Homo sapiens, UniProt O14757)
# T1 sequence (O14757 whole entry): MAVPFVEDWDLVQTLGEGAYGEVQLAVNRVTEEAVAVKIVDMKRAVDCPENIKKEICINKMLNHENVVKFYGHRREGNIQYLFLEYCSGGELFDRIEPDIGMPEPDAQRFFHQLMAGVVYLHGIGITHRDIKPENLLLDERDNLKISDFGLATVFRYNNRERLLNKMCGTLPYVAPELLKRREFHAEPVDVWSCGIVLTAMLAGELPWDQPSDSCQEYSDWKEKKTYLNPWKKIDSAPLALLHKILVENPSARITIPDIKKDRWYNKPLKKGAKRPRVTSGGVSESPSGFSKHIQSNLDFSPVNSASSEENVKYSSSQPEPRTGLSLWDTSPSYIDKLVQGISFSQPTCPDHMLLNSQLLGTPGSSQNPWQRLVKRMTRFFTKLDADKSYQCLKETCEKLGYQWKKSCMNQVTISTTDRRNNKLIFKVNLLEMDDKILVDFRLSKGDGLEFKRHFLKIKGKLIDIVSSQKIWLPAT
# Experiment: Inhibition of Chk1
# Settings: not given
row,SMILES,IC50 [nM]
1,CNCc1ccc(-c2cc(C(N)=O)c(NC(N)=O)s2)cc1,> 300
2,COc1ccc(-c2cc(C(N)=O)c(NC(N)=O)s2)cc1,5000
3,COCCNCc1ccc(-c2cc(C(N)=O)c(NC(N)=O)s2)cc1,72
4,CN(CCO)Cc1ccc(-c2cc(C(N)=O)c(NC(N)=O)s2)cc1,31
5,CN(C)CCCOc1ccc(-c2cc(C(N)=O)c(NC(N)=O)s2)cc1,230
6,NC(=O)Nc1sc(-c2ccc(OCCN3CCCCC3)cc2)cc1C(N)=O,230
7,NC(=O)Nc1sc(-c2ccc(OCCOCC3CC3)cc2)cc1C(N)=O,23000
8,COCCOCCOc1ccc(-c2cc(C(N)=O)c(NC(N)=O)s2)cc1,4100
9,NC(=O)Nc1sc(-c2ccc(CNC3CCCC3)cc2)cc1C(N)=O,39
10,COCCOc1ccc(-c2cc(C(N)=O)c(NC(N)=O)s2)cc1,6700
11,CN(CCN)C(=O)c1cc(-c2ccccc2)sc1NC(N)=O,5500
12,NC(=O)Nc1sc(-c2ccccc2)cc1C(=O)NC1CCOCC1,2100
13,CC1(C)CCCC(C)(C)N1Cc1ccc(-c2cc(C(N)=O)c(NC(N)=O)s2)cc1,17
14,NC(=O)Nc1sc(-c2ccccc2)cc1C(=O)NC1CCCCC1,3900
15,NC(=O)Nc1sc(-c2ccccc2)cc1C(=O)Nc1ccccc1,1000
16,NC(=O)Nc1sc(-c2ccccc2)cc1C(=O)NCC1CNCCO1 (centres undefined),300
17,NC(=O)Nc1sc(-c2ccccc2)cc1C(=O)NC1CNCCNC1=O (centres undefined),110
18,NC(=O)Nc1sc(-c2ccccc2)cc1C(=O)N[C@@H]1CN2CCC1CC2,130

row,SMILES,IC50 [nM]
1,COc1ccc(Nc2cc(-c3cccnc3)[nH]n2)cc1OC,600
2,NC(=O)Nc1sc(-c2cccnc2)cc1C(=O)N[C@H]1CCCNC1,6
3,NC(=O)Nc1sc(-c2ccncc2)cc1C(=O)N[C@H]1CCCNC1,4
4,NC(=O)Nc1sc(-c2ccccc2)cc1C(=O)NC1CCNCC1,110
5,NC(=O)Nc1sc(-c2ccccc2)cc1C(=O)N1CCOCC1,> 30000
6,NC(=O)Nc1sc(-c2ccc(OC(F)(F)F)cc2)cc1C(N)=O,2600
7,COc1ccc(CNCc2ccc(-c3cc(C(N)=O)c(NC(N)=O)s3)cc2)cc1,29
8,CNCCOc1ccc(-c2cc(C(N)=O)c(NC(N)=O)s2)cc1,360
9,NC(=O)Nc1sc(-c2ccccc2)cc1C(=O)NCCO,5100
10,NC(=O)Nc1sc(-c2ccccc2)cc1C(=O)N[C@H]1CN2CCC1CC2,980
11,CN1CCN(Cc2ccc(-c3cc(C(N)=O)c(NC(N)=O)s3)cc2)CC1,41
12,NC(=O)Nc1sc(-c2ccccc2)cc1C(=O)NCc1ccccc1,> 10000
13,NC(=O)Nc1sc(-c2cccc(F)c2)cc1C(=O)N[C@H]1CCCNC1,11
14,CN1CCN(C(=O)c2cc(-c3ccccc3)sc2NC(N)=O)CC1,7100
15,NC(=O)Nc1sc(-c2ccsc2)cc1C(=O)N[C@H]1CCCNC1,6
16,CS(=O)(=O)c1ccc(-c2cc(C(=O)N[C@H]3CCCNC3)c(NC(N)=O)s2)cc1,6
17,CN(C)C(=O)c1ccc(-c2cc(C(=O)N[C@H]3CCCNC3)c(NC(N)=O)s2)cc1,9
18,CCN(CC)CCOc1cccc(-c2cc(C(=O)NC3CCCNC3)c(NC(N)=O)s2)c1 (racemic),10
